Numbered stars: 1 amine (or outer) side, 2 acyl side, 3 side chain; on linkers, the order of the positions; unused ones are H or OH. Square brackets hold non-standard residues; d marks the D form. Side chains are listed from the residue outwards. Peptide text beside a SMILES is read from it. * marks the point of attachment. C18 diacid = O=C(O)CCCCCCCCCCCCCCCCC(=O)*; γGlu = O=C(O)[C@H](CCC(=O)[*:2])N[*:1]; Ac4c = NC1(C(=O)O)CCC1; AEEA = NCCOCCOCC(=O)O; Aib = CC(C)(N)C(=O)O
These compounds were tested against T1, human glucagon receptor (Homo sapiens, UniProt P47871) (assay: Glucagon receptor binding, 125I-glucagon displacement SPA on isolated membranes). Details: displacement of 125I-glucagon from membranes; read-out: IC50 GlucR.
T1 construct: expressed in transfected cells; host or cells: BHK cells (parent BHK570, CRE luciferase clone BHK/KZ10-20-48), clone pLJ6'-4-25
T1 sequence (P47871 26-477): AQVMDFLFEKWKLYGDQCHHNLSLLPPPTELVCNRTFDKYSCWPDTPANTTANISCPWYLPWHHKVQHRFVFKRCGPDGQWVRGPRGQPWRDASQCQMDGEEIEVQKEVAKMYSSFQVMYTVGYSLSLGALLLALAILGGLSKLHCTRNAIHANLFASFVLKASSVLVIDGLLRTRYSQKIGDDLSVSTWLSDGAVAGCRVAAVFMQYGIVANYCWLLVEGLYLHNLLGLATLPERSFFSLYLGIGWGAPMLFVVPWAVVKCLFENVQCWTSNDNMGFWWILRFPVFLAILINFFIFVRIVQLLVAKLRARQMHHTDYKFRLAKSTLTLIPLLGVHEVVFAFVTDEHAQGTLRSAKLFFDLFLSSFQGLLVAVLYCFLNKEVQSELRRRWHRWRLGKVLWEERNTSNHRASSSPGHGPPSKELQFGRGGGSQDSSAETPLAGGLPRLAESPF
In short: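 Displacement IC50 derived by non-linear regression of SPA counts after 2 h, 25 °C incubation of compound with [125I]-glucagon (480 pM solution, 25 μl) and membranes of hGCGR-transfected BHK cells. Buffer was HEPES pH 7.4 with ovalbumin; serum albumin was held at 0.001% max or 0.2% final.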

| SMILES | IC50 [nM] |
| --- | --- |
| CC(C)C[C@H](NC(=O)[C@H](Cc1ccc(O)cc1)NC(=O)[C@H](CCCCN)NC(=O)[C@H](CO)NC(=O)[C@H](CC(C)C)NC(=O)[C@H](CC(=O)O)NC(=O)[C@H](CO)NC(=O)[C@@H](NC(=O)[C@H](Cc1ccccc1)NC(=O)[C@@H](NC(=O)CNC(=O)[C@H](CCC(N)=O)NC(=O)C(C)(C)NC(=O)[C@@H](N)Cc1c[nH]cn1)[C@@H](C)O)[C@@H](C)O)C(=O)N[C@@H](CCC(=O)O)C(=O)N[C@@H](CO)C(=O)N[C@@H](CCCNC(=N)N)C(=O)N[C@@H](CCCNC(=N)N)C(=O)N[C@@H](C)C(=O)N[C@@H](CCCNC(=N)N)C(=O)N[C@@H](CCC(=O)O)C(=O)N[C@@H](Cc1ccccc1)C(=O)N[C@H](C(=O)N[C@@H](CCC(N)=O)C(=O)N[C@@H](Cc1c[nH]c2ccccc12)C(=O)N[C@@H](CC(C)C)C(=O)N[C@@H](CC(C)C)C(=O)N[C@@H](CCCCNC(=O)CC[C@H](NC(=O)CC[C@H](NC(=O)CC[C@H](NC(=O)CCCCCCCCCCCCCCCCC(=O)O)C(=O)O)C(=O)O)C(=O)O)C(=O)N[C@H](C(N)=O)[C@@H](C)O)C(C)C [Example 41, N^ε28-[(4S)-4-carboxy-4-[[(4S)-4-carboxy-4-[[(4S)-4-carboxy-4-(17-carboxyheptadecanoylamino)butanoyl]amino]butanoyl]amino]butanoyl]-[Aib2,Leu10,Glu15, Arg20,Glu21,Leu27,Lys28]-Glucagon amide] (H-H[Aib]QGTFTSDLSKYLESRRAREFVQWLLK([γGlu-γGlu-γGlu-C18 diacid])T-NH2; N-terminus assumed) | 1.2 |
| CC(C)C[C@H](NC(=O)[C@H](Cc1ccc(O)cc1)NC(=O)[C@H](CCCCN)NC(=O)[C@H](CO)NC(=O)[C@H](CC(C)C)NC(=O)[C@H](CC(=O)O)NC(=O)[C@H](CO)NC(=O)[C@@H](NC(=O)[C@H](Cc1ccccc1)NC(=O)[C@@H](NC(=O)CNC(=O)[C@H](Cc1c[nH]cn1)NC(=O)C(C)(C)NC(=O)[C@@H](N)Cc1c[nH]cn1)[C@@H](C)O)[C@@H](C)O)C(=O)N[C@@H](CCC(=O)O)C(=O)N[C@@H](CO)C(=O)N[C@@H](CCCNC(=N)N)C(=O)N[C@@H](CCCNC(=N)N)C(=O)N[C@@H](C)C(=O)N[C@@H](CCCNC(=N)N)C(=O)N[C@@H](CCC(=O)O)C(=O)N[C@@H](Cc1ccccc1)C(=O)N[C@H](C(=O)N[C@@H](CCC(N)=O)C(=O)N[C@@H](Cc1c[nH]c2ccccc12)C(=O)N[C@@H](CC(C)C)C(=O)N[C@@H](CC(C)C)C(=O)N[C@@H](CCCCNC(=O)CC[C@H](NC(=O)CC[C@H](NC(=O)COCCOCCNC(=O)COCCOCCNC(=O)CC[C@H](NC(=O)CCCCCCCCCCCCCCCCC(=O)O)C(=O)O)C(=O)O)C(=O)O)C(=O)N[C@H](C(N)=O)[C@@H](C)O)C(C)C [Example 33, N^ε28-[(4S)-4-carboxy-4-[[(4S)-4-carboxy-4-[[2-[2-[2-[[2-[2-[2-[[(4S)-4-carboxy-4-(17-carboxyheptadecanoylamino)butanoyl]amino]ethoxy]ethoxy]acetyl]amino]ethoxy]ethoxy]acetyl]amino]butanoyl]amino]butanoyl]-[Aib2,His3,Leu10,Glu15,Arg20,Glu21,Leu27,Lys28]-Glucagon amide] (H-H[Aib]HGTFTSDLSKYLESRRAREFVQWLLK([γGlu-γGlu-AEEA-AEEA-γGlu-C18 diacid])T-NH2; N-terminus assumed) | 2 |
| CC(C)C[C@H](NC(=O)[C@H](Cc1ccc(O)cc1)NC(=O)[C@H](CCCCN)NC(=O)[C@H](CO)NC(=O)[C@H](CC(C)C)NC(=O)[C@H](CC(=O)O)NC(=O)[C@H](CO)NC(=O)[C@@H](NC(=O)[C@H](Cc1ccccc1)NC(=O)[C@@H](NC(=O)CNC(=O)[C@H](CCC(N)=O)NC(=O)C1(NC(=O)[C@@H](N)Cc2c[nH]cn2)CCC1)[C@@H](C)O)[C@@H](C)O)C(=O)N[C@@H](CCC(=O)O)C(=O)N[C@@H](CO)C(=O)N[C@@H](CCCCN)C(=O)N[C@@H](CCCNC(=N)N)C(=O)N[C@@H](C)C(=O)N[C@@H](CCCNC(=N)N)C(=O)N[C@@H](CCC(=O)O)C(=O)N[C@@H](Cc1ccccc1)C(=O)N[C@H](C(=O)N[C@@H](CCC(N)=O)C(=O)N[C@@H](Cc1c[nH]c2ccccc12)C(=O)N[C@@H](CC(C)C)C(=O)N[C@@H](CC(C)C)C(=O)N[C@@H](CCCCNC(=O)CC[C@H](NC(=O)CC[C@H](NC(=O)[C@H](CO)NC(=O)[C@H](CCC(=O)O)NC(=O)[C@H](CO)NC(=O)CC[C@H](NC(=O)CC[C@H](NC(=O)CCCCCCCCCCCCCCCCC(=O)O)C(=O)O)C(=O)O)C(=O)O)C(=O)O)C(=O)N[C@H](C(N)=O)[C@@H](C)O)C(C)C [Example 68, N^ε28-[(4S)-4-carboxy-4-[[(4S)-4-carboxy-4-[[(2S)-2-[[(2S)-4-carboxy-2-[[(2S)-2-[[(4S)-4-carboxy-4-[[(4S)-4-carboxy-4-(17-carboxyheptadecanoylamino)butanoyl]amino]butanoyl]amino]-3-hydroxypropanoyl]amino]butanoyl]amino]-3-hydroxypropanoyl]amino]butanoyl]amino]butanoyl]-[Acb2,Leu10,Glu15,Lys17,Arg20,Glu21,Leu27,Lys28]-Glucagon amide] (H-H[Ac4c]QGTFTSDLSKYLESKRAREFVQWLLK([γGlu-γGlu-Ser-Glu-Ser-γGlu-γGlu-C18 diacid])T-NH2; N-terminus assumed) | 0.6 |
| CC(C)C[C@H](NC(=O)[C@H](Cc1ccc(O)cc1)NC(=O)[C@H](CCCCN)NC(=O)[C@H](CO)NC(=O)[C@H](CC(C)C)NC(=O)[C@H](CC(=O)O)NC(=O)[C@H](CO)NC(=O)[C@@H](NC(=O)[C@H](Cc1ccccc1)NC(=O)[C@@H](NC(=O)CNC(=O)[C@H](CCC(N)=O)NC(=O)C(C)(C)NC(=O)[C@@H](N)Cc1c[nH]cn1)[C@@H](C)O)[C@@H](C)O)C(=O)N[C@@H](CCC(=O)O)C(=O)N[C@@H](CO)C(=O)N[C@@H](CCCNC(=N)N)C(=O)N[C@@H](CCCNC(=N)N)C(=O)N[C@@H](C)C(=O)N[C@@H](CCCNC(=N)N)C(=O)N[C@@H](CCC(=O)O)C(=O)N[C@@H](Cc1ccccc1)C(=O)N[C@H](C(=O)N[C@@H](CCC(N)=O)C(=O)N[C@@H](Cc1c[nH]c2ccccc12)C(=O)N[C@@H](CC(C)C)C(=O)N[C@@H](CC(C)C)C(=O)N[C@@H](CCCCNC(=O)CC[C@H](NC(=O)CC[C@H](NC(=O)COCCOCCNC(=O)COCCOCCNC(=O)CC[C@H](NC(=O)CC[C@H](NC(=O)CCCCCCCCCCCCCCCCC(=O)O)C(=O)O)C(=O)O)C(=O)O)C(=O)O)C(=O)N[C@H](C(N)=O)[C@@H](C)O)C(C)C [Example 60, N^ε28-[(4S)-4-carboxy-4-[[(4S)-4-carboxy-4-[[2-[2-[2-[[2-[2-[2-[[(4S)-4-carboxy-4-[[(4S)-4-carboxy-4-(17-carboxyheptadecanoylamino)butanoyl]amino]butanoyl]amino]ethoxy]ethoxy]acetyl]amino]ethoxy]ethoxy]acetyl]amino]butanoyl]amino]butanoyl]-[Aib2,Leu10,Glu15,Arg20,Glu21,Leu27,Lys28]-Glucagon amide] (H-H[Aib]QGTFTSDLSKYLESRRAREFVQWLLK([γGlu-γGlu-AEEA-AEEA-γGlu-γGlu-C18 diacid])T-NH2; N-terminus assumed) | 4 |
| CC(C)C[C@H](NC(=O)[C@H](Cc1ccc(O)cc1)NC(=O)[C@H](CCCCN)NC(=O)[C@H](CO)NC(=O)[C@H](CC(C)C)NC(=O)[C@H](CC(=O)O)NC(=O)[C@H](CO)NC(=O)[C@@H](NC(=O)[C@H](Cc1ccccc1)NC(=O)[C@@H](NC(=O)CNC(=O)[C@H](CCC(N)=O)NC(=O)C(C)(C)NC(=O)[C@@H](N)Cc1c[nH]cn1)[C@@H](C)O)[C@@H](C)O)C(=O)N[C@@H](CCC(=O)O)C(=O)N[C@@H](CO)C(=O)N[C@@H](CCCNC(=N)N)C(=O)N[C@@H](CCCNC(=N)N)C(=O)N[C@@H](C)C(=O)N[C@@H](CCCNC(=N)N)C(=O)N[C@@H](CCC(=O)O)C(=O)N[C@@H](Cc1ccccc1)C(=O)N[C@H](C(=O)N[C@@H](CCC(N)=O)C(=O)N[C@@H](Cc1c[nH]c2ccccc12)C(=O)N[C@@H](CC(C)C)C(=O)N[C@@H](CC(C)C)C(=O)N[C@@H](CCCCNC(=O)CC[C@H](NC(=O)COCCOCCNC(=O)COCCOCCNC(=O)CC[C@H](NC(=O)CC[C@H](NC(=O)CCCCCCCCCCCCCCCCC(=O)O)C(=O)O)C(=O)O)C(=O)O)C(=O)N[C@H](C(N)=O)[C@@H](C)O)C(C)C [Example 20, N^ε29-[(4S)-4-carboxy-4-[[2-[2-[2-[[2-[2-[2-[[(4S)-4-carboxy-4-[[(4S)-4-carboxy-4-(17-carboxyheptadecanoylamino)butanoyl]amino]butanoyl]amino]ethoxy]ethoxy]acetyl]amino]ethoxy]ethoxy]acetyl]amino]butanoyl]-[Aib2,Leu10,Glu15,Arg20,Glu21,Leu27,Lys28]-Glucagon amide] (H-H[Aib]QGTFTSDLSKYLESRRAREFVQWLLK([γGlu-AEEA-AEEA-γGlu-γGlu-C18 diacid])T-NH2; N-terminus assumed) | 6.7 |

From patent US9474790B2, “Stable, protracted GLP-1/glucagon receptor co-agonists for medical use” (Novo Nordisk A/S, priority 2013, dated 2016)
